Measured values reported in patent US10227290B2, “Glycosphingolipids for use in modulating immune responses” (The Regents of the University of California, priority 2012, dated 2019).

Key:
[1] = system: Peripheral blood mononuclear cells (PBMCs), CD3+Vα24+ NKT cells; experiment: In vitro expansion of CD3+Vα24+ NKT cells from human PBMCs; format: cell-based; details: 13 days; 0.1 μg/ml KRN7000, 1 μg/ml α-GalCerBf, 1 μg/ml ceramideBf
Protocol: FIGS. 6A and 6B illustrate that α-GalCerBf binds human CD1d and activates human NKT cells in vitro. FIG. 6A: PBMCs were cultured for 13 days with 0.1 μg/mlKRN7000, 1 μg/ml α-GalCerBf, or 1 μg/ml ceramideBf. Dot plots show CD3^+Vα24^+NKT cells pre- and post-expansion. The data shown are representative of at least two individual experiments performed with six individual donors. FIG. 6B: Human NKT cells were purified after two rounds of expansion with 1 μg/ml α-GalCerBf and restimulated with 10 μg/ml α-GalCerBf in the presence or absence of control Ig or anti-Cd1d blocking antibodies. IFN-γ secretion was measured in supernatants 40-48 hours later. Data are representative of two independent experiments.
The capability of α-GalCerBf to stimulate freshly isolated NKT cells was determined. A first experiment was performed to determine whether Vα24^+ cells could be expanded in vitro with α-GalCerBf as previously described for KRN7000 (see, e.g., Rogers et al., J. Immunol. Meth. 285:197-214 (2004)). Peripheral blood mononuclear cells (PBMCs) were cultured with 0.1 μg/ml KRN7000, 1 μg/ml α-GalCerBf, or 1 μg/ml ceramideBf for 13 days. The presence of CD3 Vα24^+ cells was then assessed by flow cytometry. At least two individual experiments performed with six individual donors. […] IFN-γ secretion was measured in supernatants 40-48 hours later.

[2] = system: NKT cell hybridomas; experiment: IL-2 production by NKT cell hybridomas cultured with BMDCs (ELISA); format: cell-based, mouse
Protocol: FIGS. 4A-4C illustrate that α-GalCerBf binds CD1d and activates murine NKT cells in vitro. FIG. 4A: NKT cell hybridomas (see Example 4) were stained with anti-CD3 antibodies, and empty mCD1d tetramers or CD1d tetramers were loaded with α-GalCerBf or KRN7000. Flow cytometry plots representative of three independent experiments are shown. FIG. 4B: Hybridomas were cultured with BMDCs (bone marrow-derived dendritic cells) pre-pulsed with LPS or LPS+α-GalCerBf in the presence of control Ig or anti-CD1d blocking antibodies. IL-2 secretion was measured in supernatants 16 hr later. Data are representative of three independent experiments. FIG. 4C: Liver mononuclear cells were cultured with splenocytes plus increasing amounts of α-GalCerBf in the presence or absence of anti-CD1d blocking antibodies. IFN-γ secretion was measured in supernatants on day 5. Data are representative of three independent experiments.
BMDCs and NKT hybridomas were cultured at a 3:1 hybridoma:BMDC ratio and the indicated doses of KRN7000 or α-GalCerBf in the presence of 1 μg/ml LPS. Supernatants were harvested after 24 hrs, and IL-2 production was measured by ELISA. […]
NKT hybridomas were stimulated in dose titration experiments. […] Supernatants were harvested after 24 hr, and IL-2 production was measured by ELISA. […] Supernatants were harvested after 16-18 hr and IL-2 production was measured by ELISA.

CCCCCCCCCCCCCCCCCCCCCCCCCC(=O)N[C@@H](CO[C@H]1O[C@H](CO)[C@H](O)[C@H](O)[C@H]1O)[C@H](O)[C@H](O)CCCCCCCCCCCCCC [KRN7000]
Expansion of a population of CD3+Vα24+ cells [1]: showed an expansion
Sensitivity of hybridoma to KRN7000 relative to α-GalCerBf (IL-2) ([2]; hybridoma 1.2): 30 fold
Sensitivity of hybridoma to KRN7000 relative to α-GalCerBf (IL-2) ([2]; hybridoma 1.4): 80 fold
